Laboratory results: patent US20260144769A1, “4-PHENYLBUTYRATE RESTORED GABA UPTAKE AND REDUCED SEIZURES IN SLC6A1 VARIANT-MEDIATED DISORDERS” (Vanderbilt University, priority 2022, published 2026)

Experiments:
SLC6A1^+/S295L mice = assay: Video-monitoring synchronized EEG recordings, seizure activity; format: in vivo, mouse
Method: The working solution was stored at 4° C.
The surgery to implant the EEG head mount and the video-monitoring synchronized EEG recordings were conducted as described by Kristensen et al., Pharmcol. Rev. 63 (3): 585-640 (2011) and Cai et al., Exp. Neurol. 3:112973 (2019).
For recordings, the sampling rate was set at 400 Hz with a pre-amplifier gain of […]. […] EEG recordings were scored blindly by a skilled scorer using the Sirenia Seizure Pro software. A power analysis was performed using the theta frequency band of 5-7 Hz. The 5-7 Hz SWDs band was chosen because it is the mouse correlate of 2-4 Hz SWDs in humans. An average power was calculated using baseline recordings and applied to seizure analysis for treatment recordings. Seizures identified by the software were confirmed using video recordings of the period. The Racine scale was used for seizure identification (Stage 1: mouth/facial movements; Stage 2: head nodding; Stage 3: forelimb clonus; Stage 4: rearing; Stage 5: rearing and falling). The identified SWDs were then confirmed with video monitoring and compared across treated and non-treated recordings. The total seizure events over 48 hrs of EEG recordings were reported.
First, ˜2-month-old mice were implanted with EEG head mounts. After 5-7 days recovery, the mice were treated with a normal saline vehicle for 7 days, and then subject to video monitored EEG recording for 48 hrs. […]

GAT-1 = target: T1, GAT-1 (Rattus norvegicus, UniProt P23978); assay: 3H GABA uptake, HEK cells transfected with GAT-1 cDNA with or without PBA (dual therapy); format: cell-based
T1 construct: EYFP (N); expressed in transfected cells; host or cells: HEK (HEK293T) cells
Method: In cell models, HEK293T cells were transfected with SLC6A1, SLC6A1(A288V) or SLC6A1(S295L) cDNAs. The live cells were then fluxed and evaluated for GABA uptake with a 3H radiolabeling GABA uptake assay. In order to evaluate gene expression and protein trafficking, total protein from cell lysates were subjected to SDS-PAGE and immunoblotted for GAT-1 and GFP. Gene expression was evaluated at a variety of gene therapy dosages.

GAT-1 L460R = GAT-1 L460R (Rattus norvegicus, UniProt P23978, L460R); assay: 3H GABA uptake, HEK293T, mutant cDNA alone ("homozygous"); format: cell-based; set-up: The coding region of rGAT-1 was inserted into pEYFP-C1 (Clontech, Palo Alto, CA); expressed in transfected cells; host or cells: HEK293T cells; conditions: PBA 2 mM, 24 hrs
Method: GABA uptake activity was measured by the high-throughput 3H radio-labeling GABA uptake on a liquid scintillator with QuantaSmart. […] HEK293T cells were transfected with the wildtype or the mutant GAT-1^YFP cDNAs alone for 48 hr. […] HEK293T cells were transfected with the wildtype GAT-1^YFP alone or in mixture of the wildtype or the mutant cDNAs for 48 hr. In the mixed condition, the ratio of the wildtype GAT-1 with pcDNA or the mutant cDNAs are 1:1 with the total cDNA amount of 0.5 μg. […] Both wt and the mutant were normalized to its own DMSO treated conditions. 966 stands for the wildtype treated with CI-966 (50 μM) while 711 stands for NNC-711 (35 μM). (N=4-7 different transfections. In FIG. 4A and FIG. 4B, *P<0.05, **P<0.01, ***p<0.001 vs. wt 0. In FIG. C and FIG. 4D, *P<0.05, **P<0.01, ***p<0.001 vs. its own DMSO treated. In FIG. 4C, ns stands for no significance. One-way analysis of variance (ANOVA) and Newman-Keuls test. Values were expressed as mean±S.E.M.
The plasmid cDNA encoding enhanced yellow fluorescent protein (EYFP)-tagged rat GAT-1 has been previously described. […]
Briefly, cells were cultured in […] dishes for 3 days before the GABA uptake experiment in DMEM with 10% fetal bovine serum and 1% penicillin/streptomycin. […] Glacial acetic acid was added, and lysates were then determined on a liquid scintillator with QuantaSmart. […]

O=C(O)CCCc1ccccc1 [PBA, 4-phenylbutyric acid]
total number of 5-7 Hz SWDs over 48 hrs EEG recordings (SLC6A1^+/S295L mice; PBA 100 mg/kg, ip, single dose daily, 7 days (vehicle 127.7±34.08)): 33.3±13.02
reduction of seizure burden (SLC6A1^+/S295L mice; PBA treatment alone, 1 week): ~76%
GABA uptake, combined cDNA/PBA treatment vs. cDNA alone (GAT-1; 0.25 μg GAT-1 cDNA + 2 mM PBA vs. 0.5 μg GAT-1 cDNA alone): No significant difference
GABA uptake function, dual therapy vs. cDNA treatment alone (GAT-1; equal cDNA amount with PBA, variety of cDNA doses in HEK cells): greater GABA uptake function at all but one dose size
GABA uptake normalized to its own DMSO treated condition (GAT-1 L460R): 1.14±0.07
